Experimental data published in article PMC4236121 (PLoS ONE, 2014).
Like-named read-outs stand apart in the source and are kept apart here. Where no end group is shown, it is not given here.

Biological target: T1, DQ8 protein (HLA-DQ8: DQA1*03:01/DQB1*03:02) (Homo sapiens, UniProt P01909+P01920, A209T/A45G/C70Q/D89A/DUP78-78/E183D/E77G/F237L/G63E/H199R/I129T/K197E/L178F/L74F/L98V/Q57E/Q76R/S185I/S97I/T217I/T49S/V73L/Y58L)
T1 construct: made in house; host or cells: insect cells (Drosophila S2 is named only for the biotinylated tetramer preparation)
Test: Peptide binding competition
Procedure: Recombinant DQ8 protein was produced as previously described. Briefly, soluble DQ8 was purified from insect cell culture supernatants by affinity chromatography and dialyzed against citric/phosphate storage buffer, pH 5.4. For the preparation of HLA class II tetramers, DQ8 protein was in vivo biotinylated in Drosophila S2 cells prior to harvest and dialyzed into citric/phosphate buffer. The biotinylated monomer was loaded with 0.2 mg/ml of peptide by incubating at 37°C for 72 h in the presence of 0.2 mg/ml n-Dodecyl-β-maltoside and 1 mM Pefabloc SC (Sigma–Aldrich, St. Louis, MO). Peptide loaded monomers were subsequently conjugated into tetramers using R-PE streptavidin (Biosource International, Camarillo, CA) at a molar ratio of 8∶1.
Peptide binding curves were simulated by non-linear regression with Prism software (Version 5, GraphPad Software Inc.) using a sigmoidal dose–response curve.

[1] = competition with 0.04 µM biotinylated GAD65_250–266 index peptide in wells coated with recombinant DQ8 protein, europium-streptavidin, time resolved fluorometer, sigmoidal dose-response fit, read-out: IC50 (binding to DQ8)

Row | Compound | IC50 | IC50 [1]
1 | CSCC[C@H](NC(=O)[C@H](CC(=O)O)NC(=O)[C@H](CC(C)C)NC(=O)CNC(=O)[C@@H](NC(=O)[C@H](CO)NC(=O)[C@H](CC(C)C)NC(=O)[C@H](CCC(N)=O)NC(=O)[C@H](CC(N)=O)NC(=O)[C@H](Cc1ccccc1)NC(=O)[C@H](Cc1ccc(O)cc1)NC(=O)[C@H](CCCNC(=N)N)NC(=O)[C@@H]1CCCN1)[C@@H](C)O)C(=O)N[C@H](C(=O)NCC(=O)O)C(C)C [GAD65 176–190] | > 50000 nM | 
2 | AKGTTGFEAHVDKCL [GAD65 461–475] |  | > 50000 nM
3 | FQQDKHYDLSYDTGD [GAD65 427–441] |  | > 50000 nM
4 | TAKAMEQMAGSSEQAAEAME [H1MP185–204, reference compound] | 1400 nM | 
5 | TYEIAPVFVLLEYVT [GAD65 206–220] | 1500 nM | 
6 | YIPPSLRTLEDNEE [GAD65 508–521] |  | > 50000 nM
7 | YVVKSFDRSTKVIDFHYPNE [GAD65 121–140] |  | 1600 nM
